{"source": "patent US7582068B2", "about": "“Occlusion resistant hydrocephalic shunt” (Medtronic, Inc., priority 2004, dated 2009)", "test_system": "tissue in-growth of the catheter lumen", "test": "Tissue in-growth scoring of catheters explanted from rats after 3 months (SEM)", "assay_type": "in vivo, rat", "details": "peritoneal and ventricular catheters in rats, MPA compared to drug-free control, dual drug compared to single drug loading", "experimental": "Micophenolic acid (MPA) was loaded into ventricular and peritoneal catheter, design of which is described in the example 16. MPA was loaded into ventricular catheter by solvent impregnation using 50 mg/ml MPA in THF followed by drug loading into a silicone plug with 10 wt % drug concentration. Peritoneal sample was loaded by solvent impregnation using 12.5 mg/ml MPA solution in THF followed by drug loading into a plug using 2.5 mg/ml MPA in silicone rubber. Samples were implanted into rat such that the ventricular sample was placed in a lateral ventricle of the rat and the peritoneal samples was implanted into rat peritoneal cavity. In total 6 ventricular and 6 peritoneal samples were implanted into 6 rats. 12 drug-free catheters of the same configuration were implanted in the other 6 rats as controls. After 3 months samples were explanted and the tissue in-growth was scored between 1 and 5 on a basis of SEM photographs of longitudinally split catheters. […]\nVentricular and peritoneal samples were loaded with RAPA and MPA according to the following procedure: catheters were impregnated with 50 mg/ml of MPA solution in THF followed by plugging with 5 wt % RAPA in silicone Samples were implanted in rats and analyzed as described in the Example 17."}
{"smiles": "COc1c(C)c2c(c(O)c1C/C=C(\\C)CCC(=O)O)C(=O)OC2", "note": "[MPA, Mycophenolic acid]", "values": [{"measurement": "Effect on tissue proliferation (in words)", "result": "decrease of tissue proliferation"}]}
